Measured values published in ChEMBL document CHEMBL2157890, “Targeting pancreatic cancer with a G-quadruplex ligand” (Bioorg Med Chem, 2011).
Active and inactive are the calls of the source. The calls are words filed in the database; no cut-off is given here.

Tests used:
Mus musculus [1] = assay: Biodistribution in human MIAPaCa2 cells xenografted Swiss mouse tumor at 3 mg/kg, ip dosed three times per week measured 48 hrs after last 4 cycles of compound dosing; type: ADME, organism-based, Neoplasm, MIA PaCa-2; design: dose 3 mg/kg, route intraperitoneal; details: in vivo
Pancreas = assay: Biodistribution in human MIAPaCa2 cells xenografted Swiss mouse Pancreas at 3 mg/kg, ip dosed three times per week measured 48 hrs after last 4 cycles of compound dosing; type: ADME, organism-based, MIA PaCa-2; design: dose 3 mg/kg, route intraperitoneal; details: in vivo
Nucleic Acid [2] = assay: Stabilization of HSP90a DNA G-quadruplex assessed as change in melting temperature at 0.5 uM by FRET; type: nucleic-acid assay
Nucleic Acid [3] = assay: Stabilization of HSP90b DNA G-quadruplex assessed as change in melting temperature at 0.5 uM by FRET; type: nucleic-acid assay
Nucleic Acid [4] = assay: Stabilization of HSP90a DNA G-quadruplex assessed as change in melting temperature at 1 uM by FRET; type: nucleic-acid assay
Nucleic Acid [5] = assay: Stabilization of HSP90b DNA G-quadruplex assessed as change in melting temperature at 1 uM by FRET; type: nucleic-acid assay
Mus musculus [6] = assay: Inhibition of telomerase activity in human MIAPaCa2 cells xenografted Swiss mouse at 3 mg/kg, ip dosed for 25 days by TRAP-LIG assay relative to untreated control; type: functional; details: MIA PaCa-2, ip, 600 h, route intraperitoneal
Mus musculus [7] = assay: Reduction in HSP90 protein expression in human MIAPaCa2 cells xenografted Swiss mouse tumor at 3 mg/kg, ip dosed three times per week by immunoblot; type: functional, MIA PaCa-2; design: scale not given: the % may be the effect or the level left; details: route intraperitoneal
Mus musculus [8] = assay: Reduction in hTERT protein expression in human MIAPaCa2 cells xenografted Swiss mouse tumor at 3 mg/kg, ip dosed three times per week by immunoblot; type: functional, MIA PaCa-2; design: scale not given: the % may be the effect or the level left; details: route intraperitoneal
Mus musculus [9] = assay: Reduction in k-Ras protein expression in human MIAPaCa2 cells xenografted Swiss mouse tumor at 3 mg/kg, ip dosed three times per week by immunoblot; type: functional, organism-based; design: dose 3 mg/kg; details: MIA PaCa-2
Mus musculus [10] = assay: Reduction in Bcl-2 protein expression in human MIAPaCa2 cells xenografted Swiss mouse tumor at 3 mg/kg, ip dosed three times per week by immunoblot; type: functional, MIA PaCa-2; design: scale not given: the % may be the effect or the level left; details: route intraperitoneal
MIA PaCa-2 [11] = assay: Effect on PARP protein expression human MIAPaCa2 cells at 0.1 uM to 1 uM incubated for 8 hrs by Western blot; type: functional, cell-based
MIA PaCa-2 [12] = assay: Effect on gammaH2AX protein expression human MIAPaCa2 cells at 0.1 uM to 1 uM incubated for 8 hrs by Western blot; type: functional, cell-based
Mus musculus [13] = assay: Toxicity in human MIAPaCa2 cells xenografted in Swiss mouse assessed as incidence of weight loss at 3 mg/kg, ip dosed three times per week; type: organism-based, MIA PaCa-2; design: dose 3 mg/kg, route intraperitoneal; details: in vivo
[14] = Toxicity in human MIAPaCa2 cells xenografted in Swiss mouse assessed as maximum tolerated dosed intraperitoneally three times per week; type: organism-based, MIA PaCa-2; details: in vivo, ip
MIA PaCa-2 [15] = assay: Antitumor activity against human MIAPaCa2 cells xenografted in Swiss mouse assessed as reduction tumor volume at 3 mg/kg, ip dosed three times per week; type: functional; design: scale not given: the % may be the effect or the level left; details: route intraperitoneal

In the case of `CN1CCN(CCCNc2cc3c4c(c(NCCCN5CCN(C)CC5)cc5c4c2C(=O)N(CCCN2CCN(C)CC2)C5=O)C(=O)N(CCCN2CCN(C)CC2)C3=O)CC1`, the Drug uptake (Mus musculus [1]) is reported as “Active”, the Drug uptake (Pancreas) is reported as “Active” and the ΔTm (Nucleic Acid [2]) is reported as 34.9 °C. For the same compound, the ΔTm (Nucleic Acid [3]) was 31 °C, the ΔTm (Nucleic Acid [4]) was 36.3 °C and the ΔTm (Nucleic Acid [5]) was 32 °C. It also gave an inhibition in vivo at 3 mg/kg (Mus musculus [6]) of 50%, an Activity (Mus musculus [7]) of 30% and an Activity (Mus musculus [8]) of 30%. The Activity (Mus musculus [9]) was “inactive”, the Activity (Mus musculus [10]) was 10% and the Activity (MIA PaCa-2 [11]) was “inactive”. For the same compound, the Activity (MIA PaCa-2 [12]) was “inactive”, the Activity (Mus musculus [13]) was “Non-toxic” and the MTD [14] was 15 mg/kg. For the same compound, the Activity (MIA PaCa-2 [15]) was 50%.
